Common to all, as to format: in vitro ADME, pig
A short description of data set [1]: Polycarbonate/teflon array assembly, mannitol delivery across skin vs Franz diffusion cell. To be noted: reservoir size approaching 2.5 mm vs single 8 mm (16 mm diameter Franz cell) reservoir; 10 μCi/mL 3H-mannitol in 0.5% SLS in PBS; 24 hours. The protocol: The present invention is a novel transdermal drug delivery patch with an array of spatially organized reservoirs. In order to verify the validity of our invention we used three different assemblies, simulating the proposed matrix patch, that in essence provide the same working principle. All experiments were performed using pig skin. Skin was harvested from pigs (15) and was stored at −70° C. until the time of experiments. Skin was thawed at room temperature just before using it for experiments. A brief discussion of the experimental system used for the three cases follows. I. Polycarbonate/Teflon Array Assembly: This assembly consists of two plates made of polycarbonate/teflon—a donor plate and a receiver plate. The top plate (donor plate) has through holes (wells) drilled in it, each of which acts as an isolated donor chamber. The bottom plate (receiver plate) also has holes (wells) drilled in the same pattern as the donor plate and simulates the receiver compartment. The skin is placed between the donor and receiver plate and the plate assembly is clamped using four screws. […] At the end of 24 hours samples were drawn from the receiver plate and analyzed in a liquid scintillation counter (Packard Tri-Carb 2100TR, Packard Instrument Company, Meriden, Conn.). […] The data was then analyzed to verify any effect of a distributed dispensing system on the amount of drug delivered across the skin. […]

Data set [2] can be described thus: Polymer (polyurethane) array assembly, mannitol skin permeability. The following applies: polyurethane arrays, reservoirs 6 to 2 mm, relative to 6 mm reservoir; 0.5% SLS in PBS; 24 hrs; no clamping.
Method: Polymer (Polyurethane) Array Assembly: Skin was placed in a PBS receiver fluid (10 ml) such that PBS contacted the skin on all sides and the bottom but not the top (FIG. 5). An array of liquid reservoirs was created by punching circular holes in a matrix pattern in a polyurethane slab (thickness=5 mm). These holes were separated from each other by one diameter. Such arrays were made for different size reservoirs (diameters in the range of 2-6 mm). The top surface of the skin was dried of any surface moisture. […]
Transdermal transport experiments were performed using mannitol as a model solute and sodium lauryl sulfate (SLS) as a model enhancer. […] Skin permeability in the skin exposed to reservoirs was calculated for each reservoir size by dividing the total amount delivered by the number of reservoirs, area of each reservoir, contact time, and mannitol concentration in each reservoir. Enhancement factors corresponding to various reservoir sizes were then calculated with reference to the permeability obtained from the largest reservoir (6 mm).
The enhancements are calculated with respect to the permeability obtained from a 6 mm reservoir.
Data set [3] is described as follows: Agar gel disc assembly on Franz diffusion cell, mannitol skin permeability. To be noted: agar gel disks 16, 9, 5 and 3 mm, relative to 16 mm disk; 0.5% SLS in PBS; 24 hrs.
Method: All experiments were performed using pig skin. Skin was harvested from pigs (15) and was stored at −70° C. until the time of experiments. Skin was thawed at room temperature just before using it for experiments. […] Agar Gel Disc Assembly: A third experimental system was used to assess the dependence of permeability on contact area. In this system, permeation of mannitol from gel disks was studied. For this purpose, agar gel disks were prepared by dissolving 0.5 gm agar (Becton Dickinson Microbiology Systems, Sparks, Md.) in 20 ml of 0.5% solution (w/v) SLS in PBS. 10 μCi/ml ^3H radiolabeled mannitol was added to the mixture. The mixture was heated until agar formed a viscous solution. The viscous mixture was allowed to settle into a gel by pouring it into a petri dish to form a circular disc of 3.5 mm thickness. Disks of various diameters (16, 9, 5, and 3 mm) were then cut using a punch. […] Receiver compartments were sampled over 24 hrs and concentration of radiolabeled mannitol in these samples was measured using a scintillation counter. Permeability was calculated for each reservoir size by dividing the total flux obtained by the number of reservoirs at that particular size. Enhancement factors were calculated by dividing the permeability obtained from a disk of a particular size with reference to permeability obtained from the largest disk (16 mm).
Data set [4] is described as follows: Patches holding agar gel disc reservoir arrays at constant area fraction, mannitol delivery. The following applies: 3 mm reservoir array (28 reservoirs) vs one 16 mm reservoir; area fraction ~20%; skin area 10.25 cm^2; identical formulation.
From the text: All enhancements are obtained by normalizing the amount delivered into the skin at any particular reservoir size to that delivered at 16 mm. Error bars correspond to one standard deviation (n=5).
To experimentally determine the enhancement obtained by reservoir arrays, we created patches holding reservoir arrays containing ^3H labeled mannitol as the model solute. These patches were created at varying reservoir sizes (16 mm, 9 mm, 5 mm and 3 mm). In these patches, the reservoirs were arranged in a square pattern with the center-to-center distance between two adjacent reservoirs set to twice the reservoir diameter. […] Keeping the area fraction the same for all the reservoir sizes (˜20%) drug reservoirs were placed on these skin pieces.

`OC[C@@H](O)[C@@H](O)[C@H](O)[C@H](O)CO` [mannitol]: the “amount of mannitol delivered across the skin per unit area, normalized to single continuous reservoir” value in data set [1] is listed as “exceeding 10 fold”. Moreover, in data set [2], the “mannitol permeability enhancement as a function of reciprocal of reservoir size” value is on record as “permeability enhancement increases with inverse reservoir size”. Also, in data set [3], the “mannitol permeability enhancement for varying reservoir sizes” value is on record as “significant increase in permeability is observed with a decrease in disk diameter”. In data set [4], the “amount of mannitol delivered per unit macroscopic area, array vs single large reservoir” value was “about 11 times”.

The record behind these values is patent publication US20050181029A1, “Distributed drug dispensing matrix as a transdermal patch” (priority 2004, published 2005).
